Measurements from patent US8629157B2, “Pyrrolidine compounds which modulate the CB2 receptor” (Boehringer Ingelheim International GmbH, priority 2009, dated 2014).
Like-named read-outs stand apart in the source and are kept apart here.

Biological target: human CB2R (Homo sapiens, UniProt P34972)
Assay: CB2R mediated modulation of cAMP synthesis
Assay type: cell-based
Summary of the method: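 CHO cells expressing human CB2R were treated 30 min at 37° C. with compounds in buffer containing 1 mM IBMX, 0.25% BSA and 10 uM forskolin; cAMP in lysates was measured by DiscoverX-XS kit.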

[1] = CHO cells expressing human CB2R, inhibition of forskolin-stimulated cAMP synthesis, mean, read-out: CB2 CAMP @ EC50 nM (mean)

Sequence of human CB2R (P34972 whole entry): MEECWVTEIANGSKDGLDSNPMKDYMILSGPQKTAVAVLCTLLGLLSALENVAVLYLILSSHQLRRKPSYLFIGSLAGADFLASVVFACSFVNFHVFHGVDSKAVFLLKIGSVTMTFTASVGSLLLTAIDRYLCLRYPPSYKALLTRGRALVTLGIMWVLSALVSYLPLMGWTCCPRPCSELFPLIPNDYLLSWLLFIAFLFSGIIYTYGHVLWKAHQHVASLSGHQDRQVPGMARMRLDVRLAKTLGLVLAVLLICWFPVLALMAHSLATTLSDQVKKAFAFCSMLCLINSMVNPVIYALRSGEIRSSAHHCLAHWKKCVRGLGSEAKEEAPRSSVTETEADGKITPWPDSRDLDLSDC

Row | SMILES | EC50 [nM] | EC50 [1] [nM]
1 | CC(C)(C)c1cc(NC(=O)[C@@H]2CCC(=O)N2c2ccc(C(F)(F)F)cc2)no1 [(S)-5-Oxo-1-(4-trifluoromethyl-phenyl)-pyrrolidine-2-carboxylic acid (5-tert-butyl-isoxazol-3-yl)-amide] | 5.76 | 
2 | COc1ccc(-c2nsc(NC(=O)[C@@H]3CCC(=O)N3c3ccc(C(F)(F)F)cc3)n2)cc1 [(S)-5-Oxo-1-(4-trifluoromethyl-phenyl)-pyrrolidine-2-carboxylic acid [3-(4-methoxy-phenyl)-1,2,4-thiadiazol-5-yl]-amide] |  | 178
3 | CC(C)(CO)c1cc(NC(=O)[C@@H]2CCC(=O)N2c2ccc(C(F)(F)F)cc2)no1 [(S)-5-Oxo-1-(4-trifluoromethyl-phenyl)-pyrrolidine-2-carboxylic acid [5-(2-hydroxy-1,1-dimethyl-ethyl)-isoxazol-3-yl]-amide] | 80.8 | 
4 | COCC(C)(C)c1cc(NC(=O)[C@@H]2CCC(=O)N2c2ccc(C(F)(F)F)cc2)no1 [(S)-5-Oxo-1-(4-trifluoromethyl-phenyl)-pyrrolidine-2-carboxylic acid [5-(2-methoxy-1,1-dimethyl-ethyl)-isoxazol-3-yl]-amide] | 15.2 | 
5 | C=Cc1ccc(N2C(=O)CC[C@H]2C(=O)Nc2cc(C(C)(C)C)no2)cc1 [(S)-5-Oxo-1-(4-vinyl-phenyl)-pyrrolidine-2-carboxylic acid (3-tert-butyl-isoxazol-5-yl)-amide] | 20.3 | 
6 | C=Cc1ccc(N2C(=O)CC[C@H]2C(=O)Nc2cc(C(C)(C)C)on2)cc1 [(S)-5-Oxo-1-(4-vinyl-phenyl)-pyrrolidine-2-carboxylic acid (5-tert-butyl-isoxazol-3-yl)-amide] | 70 | 
7 | Cc1ccc(N2C(=O)CC[C@H]2C(=O)Nc2cc(C(C)(C)C)no2)cc1 [(S)-5-Oxo-1-p-tolyl-pyrrolidine-2-carboxylic acid (3-tert-butyl-isoxazol-5-yl)-amide] | 163 | 
8 | CC(C)(C)c1cc(NC(=O)[C@@H]2CCC(=O)N2c2ccccn2)on1 [(S)-5-Oxo-1-pyridin-2-yl-pyrrolidine-2-carboxylic acid (3-tert-butyl-isoxazol-5-yl)-amide] | 136 | 
9 | Cc1ccc(N2C(=O)CC[C@H]2C(=O)Nc2cc(C(C)(C)C)no2)cc1Cl [(S)-l-(3-Chloro-4-methyl-phenyl)-5-oxo-pyrrolidine-2-carboxylic acid (3-tert-butyl-isoxazol-5-yl)-amide] | 77.4 | 
10 | Cc1ccc(N2C(=O)CC[C@H]2C(=O)Nc2cc(C(C)(C)C)on2)cc1Cl [(S)-l-(3-Chloro-4-methyl-phenyl)-5-oxo-pyrrolidine-2-carboxylic acid (5-tert-butyl-isoxazol-3-yl)-amide] |  | 333
11 | COCC(C)(C)c1cc(NC(=O)[C@@H]2CCC(=O)N2c2ccc(Cl)cc2)on1 [(S)-l-(4-Chloro-phenyl)-5-oxo-pyrrolidine-2-carboxylic acid [3-(2-methoxy-1,1-dimethyl-ethyl)-isoxazol-5-yl]-amide] | 48.7 | 
12 | COCC(C)(C)c1cc(NC(=O)[C@@H]2CCC(=O)N2c2ccc(Cl)cc2)no1 [(S)-l-(4-Chloro-phenyl)-5-oxo-pyrrolidine-2-carboxylic acid [5-(2-methoxy-1,1-dimethyl-ethyl)-isoxazol-3-yl]-amide] | 86.1 | 
13 | CCCN1CCC[C@H]1C(=O)Nc1nc(C(C)(C)C)cs1 [Example 187, (S)-1-Propyl-pyrrolidine-2-carboxylic acid (4-tert-butyl-thiazol-2-yl)-amide] | 159 | 
14 | CC(C)(C)OC(=O)CN1CCC[C@H]1C(=O)Nc1cc(C(C)(C)C)no1 [[(S)-2-(3-tert-Butyl-isoxazol-5-ylcarbamoyl)-pyrrolidin-1-yl]-acetic acid tert-butyl ester] | 0.1 | 
